Assay results reported in publication PMC5156323 (Journal of natural products, 2015).

Columns and labels:
Assay type in all cases: cell-based
[1] = test system: proinflammatory cytokine production in induced THP-1 cells; assay: induced THP-1; conditions: at 10 μM
[2] = test system: melanoma cell line LOX IMVI; assay: NCI-DTP 60, LOX IMVI; conditions: Homo sapiens, read-out: IC50 (cytotoxic)
[3] = test system: tumor necrosis factor-alpha (TNF-α) production in induced THP-1 cells; assay: induced THP-1; conditions: abstract, no concentration given
[4] = test system: leukemia cell line SR; assay: NCI-DTP 60, SR; conditions: read-out: IC50 (cytotoxic)
[5] = test system: interleukin 6 (IL-6) production in induced THP-1 cells; assay: induced THP-1
[6] = test system: IL-33 production in induced THP-1 cells; assay: induced THP-1; conditions: at 10 μM; THP-1 cells induced with LPS and TiO2
[7] = test system: IL-1β production in induced THP-1 cells; assay: induced THP-1; conditions: abstract, no concentration given

**Q.** Which “effect on proinflammatory cytokine production” value [1] does the source give for `CCCCCCCCCC(=O)[C@@H]1C(=O)O[C@@]2(C)C(=O)C=C3C=C(C[C@H](C)O)OC=C3[C@@H]12` [Compound 1, berkchaetoazaphilone A] here?
**A.** The value was “no effect”.

**Q.** Which IC50 [2] does the source give for `CCCCCCCCCC(=O)[C@@]12O[C@@]13C1=COC(C[C@H](C)O)=CC1=CC(=O)[C@]3(C)OC2=O` [Compound 2, berkchaetoazaphilone B] here?
**A.** The IC50 was 10 µM.

**Q.** What about the “TNFα production in the induced inflammasome assay” value [3] of the same compound?
**A.** The value was “inhibited”.

**Q.** And the IC50 [4]?
**A.** Its IC50 is 10 µM.

**Q.** And the “IL-6 production in the induced inflammasome assay” value ([5]; abstract, no concentration given)?
**A.** The value was “inhibited”.

**Q.** And the “inhibition of production of interleukin 6 (IL-6)” value ([5]; at 10 μM, THP-1 cells induced with LPS and TiO2)?
**A.** Its value is “completely inhibited”.

**Q.** And the “inhibition of production of IL-33” value [6]?
**A.** The value was “completely inhibited”.

**Q.** And the “IL-1β production in the induced inflammasome assay” value [7]?
**A.** Its value is “inhibited”.
